Target: hOGG1 (Homo sapiens, UniProt O15527)
Experiment: Biochemical fluorescence assay to measure enzymatic activity of hOGG1 (OGG1/APEX IC50)
Design: Protein His-hOGG1 (12-323) was prepared; His (N); host or cells: E. coli
Conditions: 1 nM OGG1+2 nM APEX+6 nM dsDNA (8-oxo-dG substrate); pH 7.5; RT 40 min; read-out: OGG1/APEX IC50
Procedure, shortened: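 His-hOGG1 (12-323, E. coli) at 1 nM with 2 nM hAPE1/APEX1, preincubated 20 min RT with compound. Then 6 nM 8-oxo-dG dsDNA substrate added, 40 min at RT in Tris pH 7.5, 100 mM KCl. TAMRA fluorescence (Ex520/Em600) converted to % inhibition vs controls; IC50 from 3-parameter fit of 10-point curve.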

hOGG1, sequence (O15527 12-323): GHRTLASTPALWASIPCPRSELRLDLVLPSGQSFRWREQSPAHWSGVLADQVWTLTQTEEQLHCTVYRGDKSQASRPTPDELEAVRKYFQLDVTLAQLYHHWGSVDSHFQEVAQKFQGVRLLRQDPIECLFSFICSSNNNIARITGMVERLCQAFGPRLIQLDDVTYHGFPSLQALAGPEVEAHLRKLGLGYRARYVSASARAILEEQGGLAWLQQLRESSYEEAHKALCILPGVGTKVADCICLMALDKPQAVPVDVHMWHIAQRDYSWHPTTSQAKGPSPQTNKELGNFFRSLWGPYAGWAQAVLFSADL

IC50 [µM] | SMILES
1 to 10 | COc1cc(NC(=O)[C@@H]2CC[C@H](N3Cc4ccccc4NC3=O)C2)ccc1C [Example 65, (1R,3S)—N-(3-methoxy-4-methylphenyl)-3-(2-oxo-1,2-dihydroquinazolin-3(4H)-yl)cyclopentanecarboxamide]
< 0.1 | COc1cc(NC(=O)[C@H]2CC[C@@H](N3Cc4c(C)cc(O)cc4C3=O)CC2)ccc1C [Example 206, (1s,4s)-4-(6-Hydroxy-4-methyl-1-oxoisoindolin-2-yl)-N-(3-methoxy-4-methylphenyl)cyclohexanecarboxamide]
1 to 10 | COc1cc(NC(=O)[C@H]2CC[C@@H](N3Cc4c(F)cccc4C3=O)CC2)ccc1C [Example 164, (1s,4s)-4-(4-Fluoro-1-oxoisoindolin-2-yl)-N-(3-methoxy-4-methylphenyl)cyclohexanecarboxamide]
1 to 10 | COc1cc(NC(=O)[C@H]2CC[C@@H](N3Cc4c(C=O)cccc4C3=O)CC2)ccc1C [Example 162, (1s,4s)-4-(4-Formyl-1-oxoisoindolin-2-yl)-N-(3-methoxy-4-methylphenyl)cyclohexanecarboxamide]
1 to 10 | CCc1cccc2c1CN([C@H]1CC[C@@H](C(=O)Nc3ccc(C)c(OC)c3)CC1)C2=O [Example 156, (1s,4s)-4-(4-Ethyl-1-oxoisoindolin-2-yl)-N-(3-methoxy-4-methylphenyl)cyclohexanecarboxamide]
< 0.1 | COc1cc(NC(=O)[C@H]2CC[C@@H](N3Cc4c(C)ccc(OCCN(C)C)c4NC3=O)CC2)ccc1C [Example 21, (1s,4s)-4-(8-(2-(Dimethylamino)ethoxy)-5-methyl-2-oxo-1,2-dihydroquinazolin-3(4H)-yl)-N-(3-methoxy-4-methylphenyl)cyclohexanecarboxamide]
< 0.1 | COc1cc(NC(=O)[C@H]2CC[C@@H](N3Cc4c(C)cc(C(=O)NCCN(C)C)cc4C3=O)CC2)ccc1C [Example 217, N-(2-(Dimethylamino)ethyl)-2-((1s,4s)-4-(3-methoxy-4-methylphenylcarbamoyl)cyclohexyl)-7-methyl-3-oxoisoindoline-5-carboxamide]
0.1 to 1 | COc1cc(NC(=O)[C@H]2CC[C@@H](N3Cc4c(C)cccc4C3=O)CC2)ccc1Br [Example 120, (1s,4s)-N-(4-Bromo-3-methoxyphenyl)-4-(4-methyl-1-oxoisoindolin-2-yl)cyclohexane-1-carboxamide]
1 to 10 | Cc1cccc2c1CN([C@H]1CC[C@@H](C(=O)Nc3ccc4cc[nH]c4c3)CC1)C2=O [Example 276, (1s,4s)-N-(1H-indol-6-yl)-4-(4-methyl-1-oxoisoindolin-2-yl)cyclohexanecarboxamide]
1 to 10 | Cc1cccc2c1CN([C@H]1CC[C@@H](C(=O)Nc3ccc4nc[nH]c4c3)CC1)C2=O [Example 272, (1s,4s)-N-(1H-benzo[d]imidazol-6-yl)-4-(4-methyl-1-oxoisoindolin-2-yl)cyclohexanecarboxamide]
> 10 | COc1cc(NC(=O)C2C[C@@H]3[C@H](C2)[C@H]3N2Cc3c(Br)cccc3C2=O)ccc1C (single isomer, unassigned) [Example 247]
< 0.1 | COc1cc(NC(=O)[C@H]2CC[C@@H](N3Cc4c(C)cc(CNS(C)(=O)=O)cc4NC3=O)CC2)ccc1C [Example 26, (1s,4s)-N-(3-Methoxy-4-methylphenyl)-4-(5-methyl-7-(methylsulfonamidomethyl)-2-oxo-1,2-dihydroquinazolin-3(4H)-yl)cyclohexanecarboxamide]
> 10 | COc1cc(NC(=O)C(C)N2CC(N3Cc4c(Br)cccc4C3=O)C2)ccc1C (centres unmarked) [Example 188, 2-(3-(4-Bromo-1-oxoisoindolin-2-yl)azetidin-1-yl)-N-(3-methoxy-4-methylphenyl)propanamide]
0.1 to 1 | COc1ncc(NC(=O)[C@H]2CC[C@@H](N3Cc4c(C)cccc4C3=O)CC2)cc1Cl [Example 221, (1s,4s)-N-(5-Chloro-6-methoxypyridin-3-yl)-4-(4-methyl-1-oxoisoindolin-2-yl)cyclohexanecarboxamide]
0.1 to 1 | Cc1cc(NC(=O)[C@H]2CC[C@@H](N3Cc4c(C)cccc4C3=O)CC2)ccc1Cl [Example 225, (1s,4s)-N-(4-Chloro-3-methylphenyl)-4-(4-methyl-1-oxoisoindolin-2-yl)cyclohexanecarboxamide]
0.1 to 1 | COc1cc(NC(=O)[C@H]2CC[C@@H](n3[nH]c4c(C)cc(F)cc4c3=O)CC2)ccc1C [Example 119, (1s,4s)-4-(5-Fluoro-7-methyl-3-oxo-1,3-dihydro-2H-indazol-2-yl)-N-(3-methoxy-4-methylphenyl)cyclohexane-1-carboxamide]

IC50 [µM] | SMILES
< 0.1 | COc1cc(NC(=O)[C@H]2CC[C@@H](N3Cc4c(C)ccc(Cl)c4C3=O)CC2)ccc1C [Example 144, (1s,4s)-4-(7-Chloro-4-methyl-1-oxoisoindolin-2-yl)-N-(3-methoxy-4-methylphenyl)cyclohexanecarboxamide]
> 10 | Cc1cccc2c1CN([C@H]1CC[C@@H](C(=O)Nc3cc[nH]c(=O)c3)CC1)C2=O [Example 250, (1s,4s)-4-(4-methyl-1-oxoisoindolin-2-yl)-N-(2-oxo-1,2-dihydropyridin-4-yl)cyclohexanecarboxamide]
< 0.1 | COc1cc(NC(=O)[C@H]2CC[C@@H](N3Cc4c(C)cc(NCC5(F)CNC5)cc4C3=O)CC2)ccc1C [Example 140, (1s,4s)-4-(6-(((3-Fluoroazetidin-3-yl)methyl)amino)-4-methyl-1-oxoisoindolin-2-yl)-N-(3-methoxy-4-methylphenyl)cyclohexanecarboxamide]
0.1 to 1 | CCc1cccc2c1CN([C@H]1CC[C@@H](C(=O)Nc3ccc(C)c(OC)c3)CC1)C(=O)N2 [Example 72, (1s,4s)-4-(5-ethyl-2-oxo-1,2-dihydroquinazolin-3(4H)-yl)-N-(3-methoxy-4-methylphenyl)cyclohexanecarboxamide]
> 10 | COc1ccc(NC(=O)[C@]2(C)CC[C@@H](N3Cc4c(C)cccc4NC3=O)CC2)cc1C#N (single isomer, unassigned) [Example 108, (1r,4r)-N-(3-cyano-4-methoxyphenyl)-1-methyl-4-(5-methyl-2-oxo-1,2-dihydroquinazolin-3(4H)-yl)cyclohexanecarboxamide]
< 0.1 | COc1cc(NC(=O)[C@H]2CC[C@@H](N3Cc4c(C)ccc(CNS(C)(=O)=O)c4NC3=O)CC2)ccc1C [Example 24, (1s,4s)-N-(3-Methoxy-4-methylphenyl)-4-(5-methyl-8-(methylsulfonamidomethyl)-2-oxo-1,2-dihydroquinazolin-3(4H)-yl)cyclohexanecarboxamide]
0.1 to 1 | COc1cc(NC(=O)[C@H]2CC[C@@H](N3Cc4c(C)cc(C(=O)O)cc4NC3=O)CC2)ccc1C [Example 79, 3-((1s,4s)-4-(3-methoxy-4-methylphenylcarbamoyl)cyclohexyl)-5-methyl-2-oxo-1,2,3,4-tetrahydroquinazoline-7-carboxylic Acid]
0.1 to 1 | COc1cc(NC(=O)[C@H]2CC[C@@H](N3Cc4c(C)cccc4C3=O)CC2)ccc1Cl [Example 223, (1s,4s)-N-(4-Chloro-3-methoxyphenyl)-4-(4-methyl-1-oxoisoindolin-2-yl)cyclohexanecarboxamide]
0.1 to 1 | COc1cc(NC(=O)[C@H]2CC[C@@H](N3Cc4c(Br)cc(NC5COC5)cc4C3=O)CC2)ccc1C [Example 174, (1s,4s)-4-(4-Bromo-6-(oxetan-3-ylamino)-1-oxoisoindolin-2-yl)-N-(3-methoxy-4-methylphenyl)cyclohexanecarboxamide]
1 to 10 | COc1cccc(NC(=O)[C@H]2CC[C@@H](N3Cc4c(C)cccc4C3=O)CC2)n1 [Example 233, (1s,4s)-N-(6-Methoxypyridin-2-yl)-4-(4-methyl-1-oxoisoindolin-2-yl)cyclohexanecarboxamide]
< 0.1 | COc1cc(NC(=O)[C@H]2CC[C@@H](N3Cc4c(C)cc(C=O)cc4NC3=O)CC2)ccc1C [Example 78, (1s,4s)-4-(7-formyl-5-methyl-2-oxo-1,2-dihydroquinazolin-3(4H)-yl)-N-(3-methoxy-4-methylphenyl)cyclohexanecarboxamide]
0.1 to 1 | COc1cc(NC(=O)[C@H]2CC[C@@H](N3Cc4c(C)cc(O)cc4OC3=O)CC2)ccc1C [Example 116, (1s,4s)-4-(7-hydroxy-5-methyl-2-oxo-2H-benzo[e][1,3]oxazin-3(4H)-yl)-N-(3-methoxy-4-methylphenyl)cyclohexane-1-carboxamide]
< 0.1 | COc1cc(NC(=O)[C@H]2CC[C@@H](N3Cc4c(C)cc(OCCN5CCC5)cc4C3=O)CC2)ccc1C [Example 261, (1s,4s)-4-(6-(2-(Azetidin-1-yl)ethoxy)-4-methyl-1-oxoisoindolin-2-yl)-N-(3-methoxy-4-methylphenyl)cyclohexanecarboxamide]
< 0.1 | COc1cc(NC(=O)[C@H]2CC[C@@H](N3Cc4c(C)cc(N)cc4NC3=O)CC2)ccc1C [Example 76, (1s,4s)-4-(7-amino-5-methyl-2-oxo-1,2-dihydroquinazolin-3(4H)-yl)-N-(3-methoxy-4-methylphenyl)cyclohexanecarboxamide]
< 0.1 | COc1cc(NC(=O)[C@H]2CC[C@@H](N3Cc4c(C)cnc(C#N)c4NC3=O)CC2)ccc1C [Example 22, (1s,4s)-4-(8-Cyano-5-methyl-2-oxo-1,2-dihydropyrido[3,4-d]pyrimidin-3(4H)-yl)-N-(3-methoxy-4-methylphenyl)cyclohexanecarboxamide]
> 10 | COc1cc(NC(=O)[C@H]2CC[C@H](N3Cc4c(C)cc(COC5CNC5)cc4NC3=O)CC2)ccc1C [Example 111, (1r,4r)-4-(7-((azetidin-3-yloxy)methyl)-5-methyl-2-oxo-1,2-dihydroquinazolin-3(4H)-yl)-N-(3-methoxy-4-methylphenyl)cyclohexanecarboxamide]
